Source: patent US20070037752A1, “Novel alanyl-amino peptidase inhibitors for functionally influencing different cells and treating immunological, inflammatory, neuronal, and other diseases” (priority 2003, published 2007)

Experiments:
female Balb/c mice [1] = assay: Dextran sulfate-induced colitis, disease score; assay type: in vivo; settings: 10 μg single inhibitor i.p., three days from day 5, score on day 7; insignificant
From the text: Therapeutic Effect of the Combined Inhibition of the Alanyl Aminopeptidases and of Enzymes Having an Analogous Effect as Well as of Dipeptidyl Peptidase IV and of Enzymes Having an Analogous Effect on the Dextran Sulfate-Induced Colitis in Mice (Animal Model of Chronic Inflammatory Intestinal Diseases)
An inflammation relating predominantly to the colon (equivalent to the disease of human Colitis ulcerosa) was induced by an administration of 3% sodium dextran sulfate dissolved in the drinking water of female Balb/c mice having an age of 8 weeks. […] The peptidase inhibitors (or phosphate-buffered saline as a placebo) were administered intraperitoneally from day 5 on for three successive days. The degree of the disease was determined in accordance with an acknowledged evaluation system (score). The following parameters were considered when determining the score: Consistency of the excrements (solid=0 points (pts.); pasty=2 pts.; liquid/like diarrhea=4 pts.); detection of blood in the excrements (no blood=0 pts.; occult blood=2 pts.; evident=4 pts.); loss of weight (0-5%=0 pts.; 5 to 10%=1 pts.; 10-15%=2 pts.; 15-20%=3 pts.; >20%=4 pts.). Healthy animals have a score value of 0 pts.; the maximum value are 12 pts. From 10 pts. on, the disease is lethal. In the course of the disease, the score value increased due to the change of the excrement parameters. […]

female Balb/c mice [2] = assay: Ovalbumine-induced asthma bronchiale, pulmonal function (EF50) and eosinophilia; assay type: in vivo; settings: i.p. 0.1 mg of each inhibitor, days 28-35; FIG. 3 A
Procedure: Therapeutic effect of the combined inhibition of alanyl aminopeptidases and of enzymes having an analogous effect as well as of dipeptidyl peptidase IV and of enzymes having an analogous effect on the ovalbumine-induced asthma bronchiale ib mice (animal model of human asthma bronchiale).
Female Balb/c mice were sensitized for the antigen ovalbumine capable of inducing asthma bronchiale by an intreperitoneal administration of 10 μg ovalbumine on the days 0, 14 and 21. On day 27/28, the animals received a boostering dose of ovalbumine by inhalation [vD3]. After an intreperitoneal administration of the peptidase inhibitors on the days 28-35, there was effected an intranasal ovalbumine challenge on day 35, as well as a check of the allergic premature reaction via the pulmonal function. There were measured: the average expiratory flux (EF50), the tidal volume, the respiration rate and the minute volume as well as the number of eosinophilic granulocytes in the bronchoalveolar lavage.
8 to 10 animals were used per experimental group. By way of example, in FIG. 3 A, there is summarized the effect of the peptidase inhibitors on the reduction of the EF50 value. […] Group E represents animals which were not sensitized by OVA, but which were subjected—beyond that—all procedures to which the animal groups A to D were subjected.

SMILES | reduction of the heaviness of the disease (colitis score) (female Balb/c mice [1]) [%] | effect on the reduction of the EF50 value (pulmonal function) (female Balb/c mice [2])
CCCCC[C@H](CC(=O)NO)C(=O)N[C@H](C(=O)N1CCC[C@H]1CO)C(C)C [Actinonine] | −16.5 | showed a therapeutic effect
N[C@@H](CCCCNC(=O)OCc1ccc([N+](=O)[O-])cc1)C(=O)N1CCCC1 [Lys[Z(NO2)]pyrrolidide] | −12.3 | showed a therapeutic effect
